According to patent publication US20230271928A1, “NAPHTHYLUREA COMPOUND, METHODS OF PREPARATION AND USE THEREOF” (Henan Radiomedical Science and Technology Co., Ltd., priority 2021, published 2023):

Tests used:
Assay type in all cases: cell-based
PC9GR cells = experiment: MTT proliferation assay, PC9GR; settings: 48 h
Description: (§1) Test results were recorded. A cell growth curve was drawn with the dosage of each compound as abscissa and the absorbance value as ordinate.

SMMC-7721 cells = experiment: MTT proliferation assay, SMMC-7721; settings: Homo sapiens; SMMC-7721, MTT, 48 h
Description: (§2) Difference cell lines HepG2, SMMC-7721, HuH-7, MCF-7, MDA-MB-231, MDA-MB-468, PC9, PC9-AR, PC9-GR, Jurkat and Molt-13 were harvested during log phase; the number of the cells in an original cell suspension was counted; the original cell suspension was diluted to a density of 5×10^4 cells/mL; for a 96-well plate, 100 uL of the cell suspension was transferred to each well; DMSO is used as solvent for negative control; (2E)-3-(6-bromo-2-pyridyl)-2-cyano-N-[(1S)-1-phenylethyl]-2-acrylamide (WP1066CAS: 857064-38-1, with a formula
(§3) or gefitinib was used as a positive control; the naphthylurea compound ID1120B-1 and the phosphate ID1120B-P thereof were diluted with DMSO and added into the 96-well plate to achieve a final concentration of 0.1, 0.3, 1, 3, 10, 30, 100 and 300 μmol/L in each well; the 96-well plate was incubated for 48 h; 10 μL of MTT solvent (5 mg/mL) was added into each well; the 96-well plate was incubated at 37° C. for 4 h; a culture supernatant was discarded; 150 μL of DMSO was added into each well; the 96-well plate was shaken for 10 min on a plate shaker; an optical density (OD) of the resulting product was measured at a wavelength of 490 nm by an ELISA reader. Test results were recorded. A cell growth curve was drawn with the dosage of each compound as abscissa and the absorbance value as ordinate. The half maximum inhibition rates (IC50 value) of the cancer cells were shown in Table 1, FIGS. 1A-1J and FIGS. 2A-2J.

HuH-7 cells = experiment: MTT proliferation assay, HuH-7; settings: Homo sapiens; HuH-7, MTT, 48 h
Description: as §2, §3

HepG2 cells [1] = experiment: MTT proliferation assay, HepG2
Description: as §2, §3

MDA-MB-468 cells = experiment: MTT proliferation assay, MDA-MB-468; settings: Homo sapiens, MDA-MB-468, 48 h, MDA-MB-468, MTT
Description: as §1

HepG2 cells [2] = experiment: Cell cycle analysis by PI flow cytometry; settings: HepG2, 48 h; for induction of cells in the G2/M phase / percentage of cells in the G1/S phase: compared with negative control (DMSO); for length of the G2 phase, % of the cell cycle, after treatment: value reached after treatment (increase from DMSO control value)
Description: HepG2 cells were harvested during log phase, digested, centrifuged and prepared into a single cell suspension; the number of the cells in the single cell suspension was counted; the cells were seeded into a 12-well plate, with 2×10^5 cells per well; three wells were used as a parallel control design; 16 hours after seeding, the cells were treated with the compounds in a concentration gradient for 48 h; the cells were digested with trypsin and resuspended; the number of the cells in the cell suspension was counted and diluted to 5×10^5 cells/mL; after the digestion was completed, the cell suspension was centrifuged; the supernatant was discarded; the pellet was washed twice with PBS (each time the mixture was centrifuged 2000 rpm for 5 min); the supernatant was discarded; a fixative comprising 980 μL of 70% cold ethanol and 20 μL of 5% BSA (a small amount of BSA reduces cellular stress and damage) was added to each microcentrifuge tube, so that the cells were fixed overnight at 4° C.; the fixative is discarded; the cells were washed three times in PBS to remove residual fixative (each time the mixture was centrifuged at 1000 rpm for 3 min); a DNA quantification kit is used to measure the content of DNA according to the following instruction (Suo Laibao, Beijing): each sample was incubated in 100 μL of RNase A at 37° C. for 30 min; 500 μL of PI (propidium iodide) was added to each sample; each sample was incubated at room temperature for 30 min in the dark; the cell cycle was analyzed by a flow cytometry and a ModFit software; and Graphpad prism 6.0 was used to estimate the percentage of a cell population in the different phases of the cell cycle.

MOLT-13 cells = experiment: MTT proliferation assay, MOLT-13; settings: MOLT-13, MTT
Description: as §2, §3

PC9 cells = experiment: MTT proliferation assay, PC9; settings: Homo sapiens, PC-9, 48 h
Description: as §1

MDA-MB-231 cells = experiment: MTT proliferation assay, MDA-MB-231; settings: Homo sapiens; MDA-MB-231, MTT, 48 h
Description: as §1

Jurkat cells = experiment: MTT proliferation assay, Jurkat; settings: 48 h
Description: as §2, §3

PC9AR cells = experiment: MTT proliferation assay, PC9AR; settings: 48 h
Description: as §1

HepG2 liver cancer cells = experiment: Annexin V-FITC/PI apoptosis flow cytometry; settings: HepG2, 48 h; for induction of apoptosis: compared with the control group
Description: The HepG2 cells were harvested during log phase, digested, centrifuged and prepared into a single cell suspension; the number of the cells in the cell suspension was counted; the cells were seeded into a 12-well plate, with 2×10^5 cells per well; three wells were used as a parallel control design; 16 hours after seeding, the cells were treated with the compounds in a concentration gradient for 48 h; the cells were digested with EDTA-free trypsin and resuspended; the number of the cells in the cell suspension was counted and diluted to 1×10^6 cells/mL; an annexin V apoptosis detection kit was used according to the following instruction (Suo Laibao, Beijing): the cells were washed twice with 1×PBS (each time the mixture was centrifuged at 6000 rpm for 0.5 min), washed once with 1×Binding buffer (and the mixture was centrifuged at 6000 rpm for 0.5 min); the supernatant was discarded; the cells were resuspended with 300 μL of 1×Binding buffer; 5 μL of Annexin V-FITC was added into each tube, and incubated in the dark for 10 min; 5 μL of PI was added into each tube and incubated in the dark for 5 min; and each tube was then inspected on a machine in the dark.

[3] = tested on: Cyclin B1 (gene name: CCNB1); experiment: qPCR of mRNA expression, CCNB1; settings: HepG2, 10 μM, 24 h, normalised to β-actin
Description: (§4) HepG2 liver cancer cells were seeded in a 6-well plate, with 1×10^6 cells per well, and treated with the compound IY1214B-2 (in 0 and 10 μM concentrations) for 24 h; total RNA was extracted from the HepG2 liver cancer cells by a single-step TRIzol method; the concentration and purity of the total RNA was measured; the total RNA was used as a template; and complementary DNA (cDNA) was synthesized from the RNA template according to the instruction of a reverse transcription kit (Promega); sqRT-PCR and qPCR were used to quantify the expression of the genes CCNB1, CDK1 and SQSTM; and the gene ACTB was used as an internal reference gene for gene expression normalization.
(§5) A 20 μL reaction mix for qPCR contained:
(§6) Cycling conditions comprised:
(§7) After 40 cycles, the cycle threaded (CT) value of the β-actin gene was used as an initial value in comparison with the amount of the amplified product.

p62 (gene name: SQSTM) = experiment: qPCR of mRNA expression, SQSTM; settings: HepG2, 10 μM, 24 h, normalised to β-actin
Description: as §4, §5, §6, §7

CDC2 (gene name: CDK1) = experiment: qPCR of mRNA expression, CDK1; settings: HepG2, 10 μM, 24 h, normalised to β-actin
Description: as §4, §5, §6, §7

MCF-7 cells = experiment: MTT proliferation assay, MCF-7; settings: Homo sapiens, MCF7; MCF-7, MTT, 48 h; read-out: IC50
Description: as §1

[4] = concentration of 8 μL (so in the source)

SMILES | IC50 (PC9GR cells) | IC50 (SMMC-7721 cells) | IC50 (HuH-7 cells) | IC50 (MDA-MB-468 cells) | induction of cells in the G2/M phase (HepG2 cells [2]) | percentage of cells in the G1/S phase (HepG2 cells [2]) | IC50 (MOLT-13 cells; Homo sapiens, MOLT-13, 48 h) | IC50 (PC9 cells) | IC50 (MDA-MB-231 cells) | IC50 (Jurkat cells; Homo sapiens) | IC50 (PC9AR cells) | IC50 (HepG2 cells [1]; Homo sapiens, HepG2, 48 h) | induction of apoptosis (HepG2 liver cancer cells) | length of the G2 phase, % of the cell cycle, after treatment (HepG2 cells [2]) | IC50 (MCF-7 cells) | other results
O=C(NCc1ccccc1)Nc1ccc(OCc2ccc(OCCN3CCCCC3)cc2)c2ccccc12 [ID1120B-1, 1-benzyl-3-(4-((4-(2-(piperidin-1-yl)ethoxy)benzyl)oxy)naphthalen-1-yl)urea] | 32.3 µM | 3.51 µM | 3.15 µM | 4.92 µM | dramatically induce the liver cancer cells in the G2/M phase in a dose-dependent manner | significantly decrease the percentage of the liver cancer cells in the G1/S phase | 10.8 µM | 14.1 µM | 17.5 µM | 3.23 µM | 8 µM | – | – | – | – | IC50 (HepG2 cells [1]; 48 h): 1680 nM
O=C(Nc1ccc(OC(F)(F)F)cc1)Nc1ccc(OCc2ccc(OCCN3CCCCC3)cc2)c2ccccc12 [IY1214B-2] | – | 31.4 µM | 23.1 µM | 3.85 µM | dramatically induce the liver cancer cells in the G2/M phase in a dose-dependent manner | significantly decrease the percentage of the liver cancer cells in the G1/S phase | – | – | – | – | – | 3850 nM | induce apoptosis in the HepG2 liver cancer cells in a dose-dependent manner | 21.71% | – | apoptosis rate (HepG2 liver cancer cells; [4]): 47.1%; apoptosis rate, times higher than that of untreated wells (HepG2 liver cancer cells; [4]): 3.3 times; CCNB1 mRNA level down-regulated by [3]: 20-25%; SQSTM (p62) expression level up-regulated by (p62 (gene name: SQSTM)): 2.5 times; CDK1 mRNA level down-regulated by (CDC2 (gene name: CDK1)): 20-25%
COc1ccc(NC(=O)Nc2ccc(OCc3ccc(OCCN4CCCCC4)cc3)c3ccccc23)cc1 [IY1214A-1] | – | 3.57 µM | 2.76 µM | – | dramatically induce the liver cancer cells in the G2/M phase in a dose-dependent manner | significantly decrease the percentage of the liver cancer cells in the G1/S phase | – | – | 2.11 µM | – | – | 1850 nM | induce apoptosis in the HepG2 liver cancer cells in a dose-dependent manner | 34.54% | 3.54 µM | apoptosis rate (HepG2 liver cancer cells; 4 μM): 57.7%; apoptosis rate, times higher than that of untreated wells (HepG2 liver cancer cells; 4 μM and 8 μM): more than 2 times; apoptosis rate (HepG2 liver cancer cells; 8 μM): 63%
O=C(NCc1ccccc1)Nc1ccc(OCc2ccc(OCCN3CCCCC3)cc2)c2ccccc12 [ID1120B-P, 1-benzyl-3-(4-((4-(2-(piperidin-1-yl)ethoxy)benzyl)oxy)naphthalen-1-yl)urea phosphate] | – | – | – | – | – | – | – | – | – | – | – | 2370 nM | – | – | – | IC50 (MOLT-13 cells; 48 h, phosphate): 9.79 µM; IC50 (Jurkat cells; phosphate): 4.74 µM
C[C@H](NC(=O)/C(C#N)=C/c1cccc(Br)n1)c1ccccc1 [WP1066, (2E)-3-(6-bromo-2-pyridyl)-2-cyano-N-[(1S)-1-phenylethyl]-2-acrylamide, reference compound] | 14.7 µM | 11.9 µM | 8.11 µM | 13.2 µM | – | – | 17.1 µM | 9.26 µM | 10.2 µM | 10 µM | 8.49 µM | 9210 nM | – | – | 18 µM | –
